Patent US9598391B2, “Substituted chroman compounds as calcium sensing receptor modulators” (LUPIN LIMITED, priority 2012, dated 2017)
Where a name gives a salt, the structure may show the parent alone.

molecular target: T1, Calcium Sensing Receptor (CaSR) (Homo sapiens, UniProt P41180); assay: In-vitro assay of calcimimetics through modulation of Calcium Sensing Receptor (intracellular calcium, FLIPR); type: cell-based; conditions: HEK293 cells stably expressing hCaSR, increase in intracellular calcium, Fluo4NW dye, 0.3 mM CaCl2, 8-point assay, read-out: EC50 Range
T1 construct: expressed in transfected cells
T1 sequence (P41180 20-1078): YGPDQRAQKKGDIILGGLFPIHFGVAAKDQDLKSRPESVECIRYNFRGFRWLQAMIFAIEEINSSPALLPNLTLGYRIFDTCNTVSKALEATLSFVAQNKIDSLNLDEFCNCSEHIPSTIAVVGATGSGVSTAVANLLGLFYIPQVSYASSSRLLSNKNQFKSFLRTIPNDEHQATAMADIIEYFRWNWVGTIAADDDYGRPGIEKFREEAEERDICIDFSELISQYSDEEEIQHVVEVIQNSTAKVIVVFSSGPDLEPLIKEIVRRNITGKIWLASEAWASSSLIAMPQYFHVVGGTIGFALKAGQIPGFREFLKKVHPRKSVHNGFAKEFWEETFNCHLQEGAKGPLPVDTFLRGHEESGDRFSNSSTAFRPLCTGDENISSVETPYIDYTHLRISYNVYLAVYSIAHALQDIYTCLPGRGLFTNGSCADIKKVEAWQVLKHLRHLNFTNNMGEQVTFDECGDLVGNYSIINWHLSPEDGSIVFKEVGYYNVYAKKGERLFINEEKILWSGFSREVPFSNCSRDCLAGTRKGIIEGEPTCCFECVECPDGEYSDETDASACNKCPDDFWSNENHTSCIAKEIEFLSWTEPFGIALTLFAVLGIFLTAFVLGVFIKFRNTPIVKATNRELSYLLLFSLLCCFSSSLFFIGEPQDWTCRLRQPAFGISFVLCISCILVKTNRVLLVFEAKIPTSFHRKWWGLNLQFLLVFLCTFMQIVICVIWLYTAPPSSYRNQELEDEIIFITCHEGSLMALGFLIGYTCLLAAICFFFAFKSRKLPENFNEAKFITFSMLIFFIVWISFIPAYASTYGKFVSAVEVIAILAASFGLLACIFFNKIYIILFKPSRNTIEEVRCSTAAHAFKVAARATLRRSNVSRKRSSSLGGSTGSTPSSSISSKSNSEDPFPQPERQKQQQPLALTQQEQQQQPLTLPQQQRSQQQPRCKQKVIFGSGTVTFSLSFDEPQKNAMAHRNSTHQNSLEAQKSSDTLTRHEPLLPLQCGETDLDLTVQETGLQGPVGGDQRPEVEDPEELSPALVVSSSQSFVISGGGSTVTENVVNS
Method: In-vitro assay method of Calcimimetics through modulation of Calcium Sensing Receptor (CaSR):
The ability of the compounds to modulate Calcium sensing receptor is determined by measuring an increase in intracellular calcium [Ca^2+]i. Stably transfected HEK293 cells expressing hCaSR_pTriEx-3 hygro vector are developed. Cells are grown overnight on a 96-well plate to 80% confluency in Ham's F12 containing 20% FBS at 37° C., 5% CO2. Subsequently, cells are washed extensively with 20 mM HEPES buffer containing 126 mM […], 1 mM MgCl2 and 4 mM KCl to remove serum components that might interfere with the assay. Cells are loaded with calcium sensing Fluo4NW dye in HEPES base buffer containing 0.1% BSA and 1 mg/ml glucose for 30 minutes to measure changes in intracellular calcium. The activities of the compounds are measured in FLIPR using 0.3 mM CaCl2 in 20 mM HEPES base buffer. The effectiveness of the compound to modulate receptor activity is determined by calculating the EC50 responses for that compound in an 8-point assay and plotted using GraphPad Prism 5.

First: CCN(C)C(=O)c1cc([C@@H]2C[C@H](CN[C@H](C)c3cccc4ccccc34)Oc3ccccc32)ccc1C [Example 145, N-Ethyl-N,2-dimethyl-5-((2R,4S)-2-((((R)-1-(naphthalen-1-yl)ethyl)amino)methyl)chroman-4-yl)benzamide hydrochloride]
Second: CCN(CC)C(=O)c1cc([C@@H]2C[C@H](CN[C@H](C)c3cccc4ccccc34)Oc3ccccc32)ccc1C [Example 146, N,N-Diethyl-2-methyl-5-((2R,4S)-2-((((R)-1-(naphthalen-1-yl)ethyl)amino)methyl)chroman-4-yl)benzamide hydrochloride]
The EC50 of the first is higher: 0.05 to 0.2 µM for the first, 0.02 to 0.05 µM for the second. The second is the more potent here.

`COc1cc([C@@H](C)NC[C@H]2C[C@@H](c3ccc(C)c(C(=O)O)c3)c3ccccc3O2)ccc1F` [Example 116, 5-((2R,4S)-2-((((R)-1-(4-Fluoro-3-methoxyphenyl)ethyl)amino)methyl)chroman-4-yl)-2-methyl benzoic acid hydrochloride] and `COc1cc([C@@H](C)NC[C@H]2C[C@@H](c3ccc(C(=O)O)c(C)c3)c3ccccc3O2)ccc1F` [Example 114, 4-((2R,4S)-2-((((R)-1-(4-Fluoro-3-methoxyphenyl)ethyl)amino)methyl)chroman-4-yl)-2-methylbenzoic acid hydrochloride] fall in the same range of EC50: 0.05 to 0.2 µM for the first, 0.05 to 0.2 µM for the second.

Compared with `C[C@@H](NC[C@H]1C[C@@H](c2ccc(CC(=O)O)cc2)c2ccccc2O1)c1cccc2ccccc12` [Example 107b, 2-(4-((2R,4S)-2-((((R)-1-(Naphthalen-1-yl)ethyl)amino)methyl)chroman-4-yl)phenyl)acetic acid hydrochloride], `Cc1cc([C@@H]2C[C@H](CN[C@H](C)c3cccc4ccccc34)Oc3ccccc32)ccc1C(=O)O` [Example 99b, 2-Methyl-4-((2R,4S)-2-((((R)-1-(naphthalen-1-yl)ethyl)amino)methyl)chroman-4-yl)benzoic acid hydrochloride] is lower in EC50: 0.02 to 0.05 µM for the first, less than 0.02 µM for the second.

Work on `Cc1ccc([C@@H]2C[C@H](CCN[C@H](C)c3cccc4ccccc34)Oc3ccccc32)cc1C(=O)O` [Example 124, 2-Methyl-5-((2R,4S)-2-(2-(((R)-1-(naphthalen-1-yl)ethyl)amino)ethyl)chroman-4-yl)benzoic acid hydrochloride] yielded an EC50 of less than 0.02 µM.
